The record followed here is ChEMBL document CHEMBL1156350, “New multiflorane-type triterpenoid acids from Sandoricum indicum” (J Nat Prod, 2001).

≈ marks a conversion by molar mass, not a printed value.

Holding throughout (type): functional, cell-based
Test [1] deals with P388. In words: Cytotoxicity against vincristine-resistant mouse P388 cells.
The next test deals with P388/S. In words: Cytotoxicity against drug-sensitive mouse P388/S cells.
The test system of test [2] is P388. The test is described as follows: Cytotoxicity against adriamycin-resistant mouse P388 cells.
In test [3] the test system is P388. The test is described as follows: Cytotoxicity against vincristine-resistant mouse P388 cells in presence of vincristine.
The subject of test [4] is P388. In words: Cytotoxicity against adriamycin-resistant mouse P388 cells in presence of adriamycin.
Another test concerns Lymphocyte. In words: Immunosuppressant activity in mouse lymphocytes assessed as inhibition of lymphocyte proliferation.
In a further test the test system is HL-60. In words: Cytotoxicity against human HL60 cells.

Usually IC50 stands for the concentration that inhibits the measured activity by half. For `CC1(C)[C@@H](O)CC[C@]2(C)[C@H]3CC=C4[C@@H]5C[C@](C)(C(=O)O)CC[C@]5(C)CC[C@@]4(C)[C@]3(C)CC[C@@H]12`, the IC50 in the test with P388 [1] is over 25 µg/mL; in the test on P388/S it was over 25 µg/mL; in the test with P388 [2], over 25 µg/mL; in the test on P388 [3] it was over 25 µg/mL; in the test on P388 [4], over 25 µg/mL; with Lymphocyte it was 50 µg/mL (≈ 109 µM).
Regarding `CC1(C)C(=O)CC[C@]2(C)[C@H]3CC=C4[C@@H]5C[C@](C)(C(=O)O)CC[C@]5(C)CC[C@@]4(C)[C@]3(C)CC[C@@H]12`, the IC50 in the test on P388 [1] was 12 µg/mL (≈ 26.4 µM); in the test on P388/S it was over 25 µg/mL; with HL-60, 15 µg/mL (≈ 33 µM); in the test on P388 [2] it was over 25 µg/mL; with P388 [3], 12 µg/mL; in the test on P388 [4], over 25 µg/mL. The IC50 with Lymphocyte stood at 25 µg/mL (≈ 55 µM).
As for `C=C(C)[C@@H]1CC[C@]2(C)[C@H](CC=C3[C@@H]4C[C@](C)(C(=O)O)CC[C@]4(C)CC[C@]32C)[C@@]1(C)CCC(=O)O`, the IC50 was over 25 µg/mL in the test with P388 [1]; over 25 µg/mL in the test with P388/S; over 25 µg/mL in the test on P388 [2]; over 25 µg/mL with P388 [3]; over 25 µg/mL in the test with P388 [4]; over 100 µg/mL with Lymphocyte.
`CC1(C)[C@H](O)CC[C@]2(C)[C@H]3CC=C4[C@@H]5C[C@](C)(C(=O)O)CC[C@]5(C)CC[C@@]4(C)[C@]3(C)CC[C@@H]12` [KATONIC ACID]: the IC50 is 25 µg/mL (≈ 54.7 µM) in the test on P388 [1]; over 25 µg/mL in the test on P388/S; over 25 µg/mL in the test on P388 [2]; 16 µg/mL with P388 [3]; over 25 µg/mL in the test with P388 [4]; 25 µg/mL (≈ 54.7 µM) in the test with Lymphocyte.
As for `C=C(C)[C@@H]1CC[C@]2(C)[C@H](CC=C3[C@@H]4C[C@@](C)(C(=O)O)CC[C@]4(C)CC[C@]32C)[C@@]1(C)CCC(=O)O` [KOETJAPIC ACID], the IC50 was over 25 µg/mL in the test with P388 [1]; over 25 µg/mL in the test on P388/S; over 25 µg/mL with P388 [2]; over 25 µg/mL with P388 [3]; over 25 µg/mL with P388 [4]; over 100 µg/mL with Lymphocyte.
`CC1(C)C(=O)CC[C@]2(C)C3=C(CC[C@@H]12)[C@@]1(C)CC[C@@]2(C)CC[C@@](C)(C(=O)O)C[C@@]2(O)[C@]1(C)[C@H](O)C3` [SANDORINIC ACID A]: the IC50 was determined as 10 µg/mL (≈ 20.5 µM) with P388 [1]; 16 µg/mL (≈ 32.9 µM) with P388/S; 15 µg/mL (≈ 30.8 µM) with HL-60; 9 µg/mL (≈ 18.5 µM) in the test with P388 [2]; 9 µg/mL in the test with P388 [3]; 9 µg/mL in the test on P388 [4]. Also, the IC50 in the test on Lymphocyte stood at 25 µg/mL (≈ 51.4 µM).
Take `CC1(C)C(=O)CC[C@]2(C)[C@H]3C[C@@H](O)[C@@]4(C)[C@]5(O)C[C@](C)(C(=O)O)CC[C@]5(C)CC[C@]4(C)C3=CC[C@@H]12` [SANDORINIC ACID B]: the IC50 in the test on P388 [1] is 16 µg/mL (≈ 32.9 µM); in the test with P388/S it was over 25 µg/mL; in the test with P388 [2], 18 µg/mL (≈ 37 µM); with P388 [3], 16 µg/mL; with P388 [4], over 25 µg/mL; with Lymphocyte it was 50 µg/mL (≈ 103 µM).
Regarding `CC1(C)C(=O)CC[C@]2(C)C3=C(CC[C@@H]12)[C@@]1(C)CC[C@@]2(C)CC[C@@](C)(C(=O)O)C[C@H]2[C@]1(C)[C@H](O)C3` [SANDORINIC ACID C], the IC50 in the test on P388 [1], in the test on P388/S, in the test with P388 [2], with P388 [3] and in the test with P388 [4] was over 25 µg/mL throughout.
